Measurements from US12157713B2, “Conjugated oligoelectrolytes as antimicrobial agents” (Nanyang Technological University, priority 2018, dated 2024).
“And” between values parts separate entries of the source, which are not always exact repeats. Identical values can stand only once.

test system: organism classes (Gram-negative, Gram-positive and fungi); test: Single-dose screening summary by organism class; type: cell-based; conditions: 32 μg/mL; 0 = no activity
Description: (§1) Percentage growth inhibition of an individual sample was calculated based on growth in a reference well determined from negative controls (media only) and positive controls (bacterial/fungal media without inhibitors). Negative inhibition values indicate that the growth rate (or OD600) is higher compared to the reference growth (bacteria/fungi only, set to 0% inhibition). The growth rates for all bacteria and fungi may vary at −/+10%, which were within the reported normal distribution of bacterial/fungal growth. Any significant variations (or outliers/hits) were identified by the modified Z-Score, and the active compounds were selected by a combination of inhibition values and Z-Score.
Z-Score analysis was carried out to investigate outliers or hits among the samples. The Z-Score was calculated based on the sample population using a modified Z-Score method which accounts for possible skewed sample population. The modified method uses median and MAD ([…]) instead of average and standard deviation, and a scaling factor (Iglewicz, B. & Hoaglin, D. C. Volume 16: How to Detect and Handle Outliers. The ASQC Basic Reference in Quality Control: Statistical Techniques, 1993). The equation to calculate the modified Z-Score value is as follow: […]
(§2) A M(i) value of >|2.5| (absolute) would classify the sample as outliers or hits. Active samples were denoted as compounds with inhibition values equal to or above 80% and absolute Z-Score above |2.5| for either replicate (n=2 on different plates). Partial active samples were denoted as compounds with inhibition values from 50% to <80%, or absolute Z-Score below |2.5|.

| Compound | Activity: number of organism classes the compound has been found active against |
| --- | --- |
| C[N+](C)(C)CCCCOc1ccc(/C=C/c2ccc(/C=C/c3ccc(OCCCC[N+](C)(C)C)cc3)cc2)cc1 [COE-T4] | 2 |
| C[N+](C)(C)CC[N+](C)(C)CCCCCCOc1ccc(/C=C/c2ccc(OCCCCCC[N+](C)(C)CC[N+](C)(C)C)cc2)cc1 [COE-D62] | 3 |

test system: Candida albicans ATCC 90028; test: Single-dose growth inhibition, Ca; type: cell-based; conditions: ATCC90028, 32 μg/mL single dose, n=2, read-out: Growth inhibition Ca
Description: (§3) Growth inhibition of C. albicans was determined by measuring the absorbance at 530 nm (OD530), while the growth inhibition of C. neoformans was determined by measuring the difference in absorbance between 600 and 570 nm (OD600-570), after the addition of resazurin (0.001 wt. % final concentration) and incubation at 35° C. for additional 2 hrs. The absorbance was measured using a Biotek Synergy HTX plate reader. The relative growth inhibition was calculated for each well, relative to that determined from a negative control (media only) and positive control (bacteria without inhibitors) on the same plate as references. A single dose of 32 μg/mL of COE (final concentration) was used for each test.
as §1, §2

| Compound | inhibition at 32 µg/mL [%] |
| --- | --- |
| C[N+](C)(C)CCCCOc1ccc(/C=C/c2ccc(/C=C/c3ccc(OCCCC[N+](C)(C)C)cc3)cc2)cc1 [COE-T4] | > 80 |
| C[N+](C)(C)CC[N+](C)(C)CCCCCCOc1ccc(/C=C/c2ccc(OCCCCCC[N+](C)(C)CC[N+](C)(C)C)cc2)cc1 [COE-D62] | < 50 |

test system: not listed separately; test: Solubility in PBS / aqueous solubility; type: physicochemical; conditions: aqueous buffer; in PBS; read-out: Solubility in PBS

| solubility [µg/mL] | Compound |
| --- | --- |
| 210 | C[N+](C)(C)CCCCOc1ccc(/C=C/c2ccc(/C=C/c3ccc(OCCCC[N+](C)(C)C)cc3)cc2)cc1 [COE-T4] |

same assay, conditions: aqueous solution; read-out: aqueous solubility

| solubility [µg/mL] | Compound |
| --- | --- |
| 210 | C[N+](C)(C)CCCCOc1ccc(/C=C/c2ccc(/C=C/c3ccc(OCCCC[N+](C)(C)C)cc3)cc2)cc1 [COE-T4] |

test system: E. coli K12; test: Cellular uptake by E. coli K12 (absorption spectroscopy); type: cell-based, Escherichia coli; conditions: 10 μg/mL COE in PBS, OD=0.5, 2 hrs, room temperature
Description: The relative membrane affinity of COE-D4, COE-D6 and COE-D8 was estimated from the quantity taken up by cells using absorption spectroscopy. After cultures of E. coli K12 were grown in MHB at 37° C., the cells were harvested by centrifugation (6000 rpm, 5 min) and washed twice with PBS solution (pH=7.2). The cells were then resuspended in PBS and with the density adjusted to OD=1.0. Thereafter, 5 mL of this cell suspension was mixed with an equal volume of 20 μg/mL of COE in PBS to achieve a final concentration of 10 μg/mL (in triplicates). After exposure to COEs for 2 hrs at room temperature and with shaking (200 rpm), the cells were removed by centrifugation and the supernatant was collected for absorbance scans to quantify the remaining COE in the supernatant. The uptake quantity was estimated by comparing the absorbance of the supernatant to the corresponding control COE solution (i.e. 10 μg/mL in PBS). The procedure for uptake measurements at the lower temperature is similar to the one described above, but with the exposure to COEs and centrifugation occurring at 4° C. instead of room temperature
The effect of molecular structures of the COEs on relative membrane affinity, estimated from the amount taken up by E. coli K12, was measured by absorption spectroscopy (FIG. 8a-c). These experiments utilised cell suspensions (OD=0.5) incubated for 2 hrs with 10 μg mL^−1 of various COE. Cells were removed by centrifugation, and the amount of uncomplexed COE was determined from the optical absorption spectra. The longest molecule, COE-D8, achieved the highest uptake in bacteria (72%). In contrast, only 3% of COE-D4 was absorbed while the uptake for COE-D6 was 16% (Table 1a).
Parallel experiments were carried out at 4° C. […] As a result of the reduced fluidity of cellular membrane at lower temperature, the uptake decreased to around 1% for COE-D4, 5% for COE-D6, and 34% for COE-D8.

| Compound | Uptake by E. coli K12 |
| --- | --- |
| C[N+](C)(C)CCCCOc1ccc(/C=C/c2ccc(/C=C/c3ccc(OCCCC[N+](C)(C)C)cc3)cc2)cc1 [COE-T4] | 75±5% and 80% |

test system: Acinetobacter baumannii ATCC 19606; test: Single-dose growth inhibition, Ab; type: cell-based; conditions: ATCC19606, 32 μg/mL single dose, n=2, read-out: Growth inhibition Ab
Description: (§4) Inhibition of bacterial growth was determined by measuring the absorbance at 600 nm (OD600), using a Tecan M1000 Pro monochromator plate reader. Growth inhibition was calculated for each well, relative to the reference growths determined from a negative control (media only) and positive control (bacteria without inhibitors) incubated in the same plate. A single dose of 32 μg/mL of COE (final concentration) was used for each test.
as §1, §2

| Compound | inhibition at 32 µg/mL [%] |
| --- | --- |
| C[N+](C)(C)CCCCOc1ccc(/C=C/c2ccc(/C=C/c3ccc(OCCCC[N+](C)(C)C)cc3)cc2)cc1 [COE-T4] | 50 to 80 |
| C[N+](C)(C)CC[N+](C)(C)CCCCCCOc1ccc(/C=C/c2ccc(OCCCCCC[N+](C)(C)CC[N+](C)(C)C)cc2)cc1 [COE-D62] | > 80 |

test system: Escherichia coli FDA control ATCC 25922; test: Single-dose growth inhibition, Ec; type: cell-based; conditions: ATCC25922, 32 μg/mL single dose, n=2, read-out: Growth inhibition Ec
Description: as §4, §1, §2

| Compound | inhibition at 32 µg/mL [%] |
| --- | --- |
| C[N+](C)(C)CCCCOc1ccc(/C=C/c2ccc(/C=C/c3ccc(OCCCC[N+](C)(C)C)cc3)cc2)cc1 [COE-T4] | < 50 |
| C[N+](C)(C)CC[N+](C)(C)CCCCCCOc1ccc(/C=C/c2ccc(OCCCCCC[N+](C)(C)CC[N+](C)(C)C)cc2)cc1 [COE-D62] | > 80 |

test system: Klebsiella pneumoniae MDR ATCC 700603; test: Single-dose growth inhibition, Kp; type: cell-based; conditions: ATCC700603, 32 μg/mL single dose, n=2, read-out: Growth inhibition Kp
Description: as §4, §1, §2

| Compound | inhibition at 32 µg/mL [%] |
| --- | --- |
| C[N+](C)(C)CCCCOc1ccc(/C=C/c2ccc(/C=C/c3ccc(OCCCC[N+](C)(C)C)cc3)cc2)cc1 [COE-T4] | < 50 |
| C[N+](C)(C)CC[N+](C)(C)CCCCCCOc1ccc(/C=C/c2ccc(OCCCCCC[N+](C)(C)CC[N+](C)(C)C)cc2)cc1 [COE-D62] | > 80 |

test system: Pseudomonas aeruginosa ATCC 27853; test: Single-dose growth inhibition, Pa; type: cell-based; conditions: ATCC27853, 32 μg/mL single dose, n=2, read-out: Growth inhibition Pa
Description: as §4, §1, §2

| Compound | inhibition at 32 µg/mL [%] |
| --- | --- |
| C[N+](C)(C)CCCCOc1ccc(/C=C/c2ccc(/C=C/c3ccc(OCCCC[N+](C)(C)C)cc3)cc2)cc1 [COE-T4] | < 50 |
| C[N+](C)(C)CC[N+](C)(C)CCCCCCOc1ccc(/C=C/c2ccc(OCCCCCC[N+](C)(C)CC[N+](C)(C)C)cc2)cc1 [COE-D62] | < 50 |

test system: E. coli K12; test: MIC by broth microdilution against E. coli K12; type: cell-based; conditions: Escherichia coli, K12; broth microdilution, MHB, 18 hrs; read-out: MIC against E. coli K12
Description: The respective minimum inhibition concentration (MIC) of each COE molecule was determined using a broth microdilution method. Briefly, COEs were diluted via a 2-fold dilution series in 100 μL of either Muller Hinton Broth (MHB) for E. coli and S. aureus or Brain Heart Infusion Broth (BHI) for E. faecalis in a 96-well plate to achieve the desired final concentration. Subsequently, each well was inoculated with 100 μL of 1×10^6 colony forming units (CFU) mL^−1 of the respective microorganism in MHB for E. coli or BHI for E. faecalis to achieve an inoculum density of 5×10^5 CFU mL^−1. The plates were then incubated at 37° C. with shaking (200 rpm) for 18 hrs. […] The results were obtained in triplicate.
The MIC values of COE-D4, COE-D6 and COE-D8 against the reference strain E. coli K12, pathogenic E. coli UT189, and the Gram positive pathogen Enterococcus faecalis OG1RF were determined using a broth microdilution method as described in the general method above. The MICs for E. coli K12 were determined to be 128, 16, and 4 μg mL^−1 for COE-D4, COE-D6, and COE-D8, respectively (FIG. 5a). […] This is not surprising as these two organisms differ in the capsular polysaccharides that they expressed, which are known to hinder the uptake of antimicrobials and mitigate their potency (M. A. Campos, et al., Infect. Immun. 2004, 72, 7107-7114). A K-type capsid comprising α2-8-linked sialic acid is excreted by UT189 and is known to be an important virulence factor for this organism (C. Whitfield, et al., Mol. Microbiol. 1999, 31, 1307-1319; G. G. Anderson, et al., Infect. Immun. 2010, 78, 963-975).

| MIC [µg/mL] | Compound |
| --- | --- |
| 32 | C[N+](C)(C)CCCCOc1ccc(/C=C/c2ccc(/C=C/c3ccc(OCCCC[N+](C)(C)C)cc3)cc2)cc1 [COE-T4] |
| 16 | C[N+](C)(C)CC[N+](C)(C)CCCCCCOc1ccc(/C=C/c2ccc(OCCCCCC[N+](C)(C)CC[N+](C)(C)C)cc2)cc1 [COE-D62] |

test system: Cryptococcus neoformans var. grubii H99; ATCC 208821; test: Single-dose growth inhibition, Cn; type: cell-based; conditions: ATCC208821, 32 μg/mL single dose, n=2, read-out: Growth inhibition Cn
Description: as §3, §1, §2

| Compound | inhibition at 32 µg/mL [%] |
| --- | --- |
| C[N+](C)(C)CCCCOc1ccc(/C=C/c2ccc(/C=C/c3ccc(OCCCC[N+](C)(C)C)cc3)cc2)cc1 [COE-T4] | > 80 |
| C[N+](C)(C)CC[N+](C)(C)CCCCCCOc1ccc(/C=C/c2ccc(OCCCCCC[N+](C)(C)CC[N+](C)(C)C)cc2)cc1 [COE-D62] | > 80 |

test system: Staphylococcus aureus MRSA ATCC 43300; test: Single-dose growth inhibition, Sa; type: cell-based; conditions: 32 μg/mL single dose, n=2, read-out: Growth inhibition Sa
Description: as §4, §1, §2

| Compound | inhibition at 32 µg/mL [%] |
| --- | --- |
| C[N+](C)(C)CCCCOc1ccc(/C=C/c2ccc(/C=C/c3ccc(OCCCC[N+](C)(C)C)cc3)cc2)cc1 [COE-T4] | > 80 |
| C[N+](C)(C)CC[N+](C)(C)CCCCCCOc1ccc(/C=C/c2ccc(OCCCCCC[N+](C)(C)CC[N+](C)(C)C)cc2)cc1 [COE-D62] | > 80 |
